Results reported in patent US20200397763A1, “PARENTERAL FORMULATION MATERIALS AND METHODS FOR 40-O-CYCLIC HYDROCARBON ESTERS AND RELATED STRUCTURES” (Biotronik AG, priority 2018, published 2020).

Assays:
[1] = prior art; blood plasma; 15 mg/kg; SEQ ID NO:1 with nanoparticles; cited from earlier work
[2] = Rat intravenous PK of the EtOH / SEQ ID NO:1 formulation without nanoparticles; format: in vivo, Sprague-Dawley rats; conditions: for AUC(0-inf): Sprague-Dawley, rat, rats, intravenous 15 mg/kg, EtOH / 20% SEQ ID NO:1 in saline, without nanoparticles, LCMS
Procedure: It is understood the concentration may be optimized according to desired dosing schemes, routes of administration, etc.
The PK studies were conducted around the formulation from Example I. Specifically, Sprague-Dawley rats were dosed intravenously at 15 mg/kg, with blood samples being collected prior to dosing, in order to establish baseline, then post dosing at set intervals up to 24 hours. Drug bioanalytical measurements were conducted by LCMS.
Results (AUCinf) reported in the prior art are from blood plasma, whereas the present results are from both plasma and whole blood. This was done to allow for direct comparison to the previous studies. Drug area under the curve versus time ((AUCinf), total drug dose exposure) was calculated accordingly.
Sirolimus (rapamycin) was used and formulated in accordance with those steps described previously at Example I. Specifically, sirolimus was combined with SEQ ID NO:1 but without nanoparticles and tested against the studies shown in the prior art, namely, sirolimus formulated with SEQ ID NO:1 but with nanoparticles.

AUC(0-inf) ([2]; plasma): 5180 ± 130 ng·h/mL
AUC(0-inf) ([2]; whole blood): 5060 ± 541 ng·h/mL
difference between the AUCinf results of the current studies and the prior art ([2]; sirolimus without nanoparticles (current) versus with nanoparticles (prior art)): 20%
Compound: CO[C@H]1C[C@@H]2CC[C@@H](C)[C@@](O)(O2)C(=O)C(=O)N2CCCC[C@H]2C(=O)O[C@H]([C@H](C)C[C@@H]2CC[C@@H](O)[C@H](OC)C2)CC(=O)[C@H](C)/C=C(\C)[C@@H](O)[C@@H](OC)C(=O)[C@H](C)C[C@H](C)/C=C/C=C/C=C/1C [Sirolimus, rapamycin]
AUCinf [1]: 6017 ± 647 ng·h/mL
